Data on one compound can be found in publication PMC9975039 (Oncogene, 2023).

The structures appear in SMILES notation.

In this test the target is T1, AKR1C3 (Homo sapiens, UniProt P42330).
T1 sequence (P42330 1-323): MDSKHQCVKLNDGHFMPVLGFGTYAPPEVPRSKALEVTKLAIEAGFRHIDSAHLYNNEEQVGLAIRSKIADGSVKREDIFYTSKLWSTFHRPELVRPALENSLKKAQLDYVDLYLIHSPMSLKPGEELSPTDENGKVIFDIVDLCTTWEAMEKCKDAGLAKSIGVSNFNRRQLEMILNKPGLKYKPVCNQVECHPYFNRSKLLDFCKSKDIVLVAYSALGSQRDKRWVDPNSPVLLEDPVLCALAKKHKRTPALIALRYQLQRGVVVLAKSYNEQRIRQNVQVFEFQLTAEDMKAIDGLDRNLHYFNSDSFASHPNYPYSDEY
Nature of the test: S-tetralol oxidation assay, recombinant AKR1C3, absorbance at […] nm. In kind it is biochemical.

A word on the IC50: it is the concentration that gives 50% inhibition. With `NS(=O)(=O)c1ccc(-n2nc(CCCNC(=O)Nc3ccc(C(F)(F)F)cc3)cc2-c2ccccc2)cc1` [PTUPB, 4-(5-phenyl-3-{3-[3-(4-trifluoromethyl-phenyl)-ureido]-propyl}-pyrazol-1-yl)-benzenesulfonamide], the IC50 was roughly 65 nM.
